Source: patent publication US20080161365A1, “Methylene Derivatives” (PFIZER INC., priority 2005, published 2008)
Converted amounts (≈) assume the structure as drawn. “And” between values parts separate entries of the source, which are not always exact repeats. Equal values may be shown once.

Experiments:
MMP-12 catalytic domain = molecular target: T1, MMP-12 catalytic domain (Homo sapiens, UniProt P39900); experiment: MMP-12 catalytic domain thiopeptolide hydrolysis inhibition; assay type: biochemical; conditions: read-out: MMP-12CD IC50
T1 construct: MMP-9 full-length, MMP-12 catalytic domain, and MMP-14 catalytic domain
T1 sequence (P39900 106-263 limits assumed, species assumed): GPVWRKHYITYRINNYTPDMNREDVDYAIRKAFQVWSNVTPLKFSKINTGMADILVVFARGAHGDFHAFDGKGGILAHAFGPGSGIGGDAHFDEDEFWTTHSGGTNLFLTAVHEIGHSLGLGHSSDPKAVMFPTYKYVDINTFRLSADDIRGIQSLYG
Text: (§1) In general, the MMP inhibition assays measure the amount by which a test compound reduces the hydrolysis of a thiopeptolide substrate catalyzed by a matrix metalloproteinase enzyme. Such assays are described in detail by Ye et al., in Biochemistry, 1992;31(45):11231-11235, which is incorporated herein by reference.
(§2) Thiopeptolide substrates show virtually no decomposition or hydrolysis at or below neutral pH in the absence of a matrix metalloproteinase enzyme. A typical thiopeptolide substrate commonly utilized for assays is Ac-Pro-Leu-Gly-thioester-Leu-Leu-Gly-OEt. A 100 μL assay mixture will contain 50 mM of N-2-hydroxyethylpiperazine-N′-2-ethanesulfonic acid buffer (“HEPES,” pH 7.0), 10 mM CaCl2, 100 μM thiopeptolide substrate, and 1 mM 5,5′-dithio-bis-(2-nitrobenzoic acid) (DTNB). The thiopeptolide substrate concentration may be varied, for example from 10 to 800 μM to obtain Km and Kcat values. The change in absorbance at 405 nm is monitored on a Thermo Max microplate reader (molecular Devices, Menlo Park, Calif.) at room temperature (22° C.). The calculation of the amount of hydrolysis of the thiopeptolide substrate is based on E412=13600 M^−1 cm^−1 for the DTNB-derived product 3-carboxy-4-nitrothiophenoxide. Assays are carried out with and without matrix metalloproteinase inhibitor compounds, and the amount of hydrolysis is compared for a determination of inhibitory activity of the test compounds.
(§3) Test compounds were evaluated at various concentrations in order to determine their respective IC50 values, the micromolar concentration of compound required to cause a 50% inhibition of catalytic activity of the respective enzyme.
(§4) The test described above for the inhibition of MMP-13 may also be adapted and used to determine the ability of the compounds of formula (I) to inhibit the matrix metalloproteases MMP-1, MMP-2, MMP-3, MMP-7, MMP-9, MMP-12, MMP-14, and MMP-17. […]

MMP-14 catalytic domain = molecular target: T2, MMP-14 catalytic domain (Homo sapiens, UniProt P50281); experiment: MMP-14 catalytic domain thiopeptolide hydrolysis inhibition; assay type: biochemical; conditions: read-out: MMP-14CD IC50
T2 construct: MMP-9 full-length, MMP-12 catalytic domain, and MMP-14 catalytic domain
Text: as §1, §2, §3, §4

MMP-1 full-length = molecular target: T3, MMP-1 full-length (Homo sapiens, UniProt P03956); experiment: MMP-1 full-length thiopeptolide hydrolysis inhibition; assay type: biochemical; conditions: read-out: MMP-1FL IC50
T3 construct: have been assayed with MMP-1 full-length, MMP-2 full-length
T3 sequence (P03956 100-469): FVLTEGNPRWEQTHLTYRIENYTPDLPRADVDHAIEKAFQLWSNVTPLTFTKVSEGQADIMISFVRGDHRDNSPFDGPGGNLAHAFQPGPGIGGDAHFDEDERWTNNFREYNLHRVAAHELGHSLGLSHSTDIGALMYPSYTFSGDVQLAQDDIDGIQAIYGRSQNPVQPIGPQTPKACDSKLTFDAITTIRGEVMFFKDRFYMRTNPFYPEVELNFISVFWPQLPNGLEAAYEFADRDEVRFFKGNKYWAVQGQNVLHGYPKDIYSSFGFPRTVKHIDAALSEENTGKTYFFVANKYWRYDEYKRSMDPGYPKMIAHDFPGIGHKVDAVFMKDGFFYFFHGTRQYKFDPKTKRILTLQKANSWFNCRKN
Text: as §1, §2, §3, §4

MMP-3 catalytic domain = molecular target: T4, MMP-3 catalytic domain (Homo sapiens, UniProt P08254); experiment: MMP-3 catalytic domain thiopeptolide hydrolysis inhibition; assay type: biochemical; conditions: MES buffer pH 6.0; read-out: MMP-3CD IC50
T4 construct: MMP-2 full-length, MMP-3 catalytic domain, MMP-7 full-length
T4 sequence (P08254 100-272 limits assumed, species assumed): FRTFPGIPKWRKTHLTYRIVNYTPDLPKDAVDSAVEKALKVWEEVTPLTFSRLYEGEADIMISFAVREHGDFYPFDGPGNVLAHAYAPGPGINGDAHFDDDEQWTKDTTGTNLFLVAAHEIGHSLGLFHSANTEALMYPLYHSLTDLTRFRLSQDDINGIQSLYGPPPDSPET
Text: as §1, §2, §3
The assay buffer used with MMP-3CD was 50 mM N-morpholinoethane sulfonate (“MES”) at pH 6.0 rather than the HEPES buffer at pH 7.0 described above.
as §4

MMP-9 full-length = molecular target: T5, MMP-9 full-length (Homo sapiens, UniProt P14780); experiment: MMP-9 full-length thiopeptolide hydrolysis inhibition; assay type: biochemical; conditions: read-out: MMP-9FL IC50
T5 construct: further screened with full-length MMP-2, full-length MMP-7, full-length MMP-9
T5 sequence (P14780 94-707, species assumed): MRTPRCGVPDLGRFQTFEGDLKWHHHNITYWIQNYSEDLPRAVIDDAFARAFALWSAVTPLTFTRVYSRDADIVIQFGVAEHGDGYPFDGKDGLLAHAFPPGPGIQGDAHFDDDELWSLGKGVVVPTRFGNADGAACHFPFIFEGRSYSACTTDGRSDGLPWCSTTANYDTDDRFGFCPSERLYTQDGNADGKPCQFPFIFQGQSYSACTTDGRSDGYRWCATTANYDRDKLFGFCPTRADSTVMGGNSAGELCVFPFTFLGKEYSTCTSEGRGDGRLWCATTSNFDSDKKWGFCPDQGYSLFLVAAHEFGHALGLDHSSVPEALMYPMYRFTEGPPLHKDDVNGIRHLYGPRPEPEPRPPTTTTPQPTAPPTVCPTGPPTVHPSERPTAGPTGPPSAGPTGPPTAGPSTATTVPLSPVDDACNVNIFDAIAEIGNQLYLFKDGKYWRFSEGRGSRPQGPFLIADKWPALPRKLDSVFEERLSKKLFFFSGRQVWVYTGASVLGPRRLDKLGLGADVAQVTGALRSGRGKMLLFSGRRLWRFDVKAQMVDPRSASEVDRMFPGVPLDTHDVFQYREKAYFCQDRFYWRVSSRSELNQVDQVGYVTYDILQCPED
Text: as §1, §2, §3, §4

MMP-13 catalytic domain = molecular target: T6, MMP-13 catalytic domain (Homo sapiens, UniProt P45452); experiment: MMP-13 catalytic domain thiopeptolide hydrolysis inhibition (Biological Method 1); assay type: biochemical; conditions: HEPES pH 7.0, 22° C.; read-out: MMP-13CD IC50
T6 construct: use the catalytic domain of the MMP-13 enzyme, namely matrix metalloproteinase-13 catalytic domain
Text: as §1
Some of the particular methods described below use the catalytic domain of the MMP-13 enzyme, namely matrix metalloproteinase-13 catalytic domain (“MMP-13CD”), rather than the corresponding full-length enzyme, MMP-13. It has been shown previously by Ye Qi-Zhuang, Hupe D., and Johnson L. (Current Medicinal Chemistry, 1996;3:407-418) that inhibitor activity against a catalytic domain of an MMP is predictive of the inhibitor activity against the respective full-length MMP enzyme.
Thiopeptolide substrates show virtually no decomposition or hydrolysis at or below neutral pH in the absence of a matrix metalloproteinase enzyme. A typical thiopeptolide substrate commonly utilized for assays is Ac-Pro-Leu-Gly-thioester-Leu-Leu-Gly-OEt. A 100 μL assay mixture will contain 50 mM of N-2-hydroxyethylpiperazine-N′-2-ethanesulfonic acid buffer (“HEPES,” pH 7.0), 10 mM CaCl2, 100 μM thiopeptolide substrate, and 1 mM 5,5′-dithio-bis-(2-nitrobenzoic acid) (DTNB). The thiopeptolide substrate concentration may be varied, for example from 10 to 800 μM to obtain Km and Kcat values. The change in absorbance at 405 nm is monitored on a Thermo Max microplate reader (molecular Devices, Menlo Park, Calif.) at room temperature (22° C.). The calculation of the amount of hydrolysis of the thiopeptolide substrate is based on E412=13600 M^−1 cm^−1 for the DTNB-derived product 3-carboxy-4-nitrothiophenoxide. Assays are carried out with and without matrix metalloproteinase inhibitor compounds, and the amount of hydrolysis is compared for a determination of inhibitory activity of the test compounds. […]

[1] = PDS solubility (Chemical Method 1, UV-visible absorbance of saturated solution); assay type: physicochemical; conditions: thermodynamic from solid; pH 6.5 aqueous phosphate buffer, 5% glyme
Procedure: Solubility of a test compound of the present invention refers to solubility of the compound in a solvent mixture containing ethylene glycol dimethylether (“glyme”) and pH 6.5 aqueous phosphate buffer. The solubility was determined by measuring ultraviolet-visible absorbance of a saturated solution of the compound and comparing the absorbance value to absorbance values obtained for four standard solutions of the compound having known concentrations plotted on a 4-point ultraviolet-visible standard curve. […]
The prepared 96-well plate was transferred to a 96-well ultraviolet-visible plate reader, and the wells were scanned over wavelengths of from 220 nm to 350 nm with a step size of 2 nm. The ultraviolet-visible data (i.e., data generated at the same wavelength) were electronically exported to a spreadsheet and absorbance data for the filtrate of the saturated solution measured at one wavelength (i.e., the data that had the best linear fit as calculated by the highest regression coefficient, typically 0.98 or higher) and the corresponding standards absorbance data measured at the same wavelength were plotted as a standard absorbance-concentration curve based on the Lambert-Beer law. […] The calculated solubility was expressed as in milligrams of test compound in milliliters of solvent. […]

MMP-8 catalytic domain = molecular target: T7, MMP-8 catalytic domain (Homo sapiens, UniProt P22894); experiment: MMP-8 catalytic domain thiopeptolide hydrolysis inhibition; assay type: biochemical; conditions: read-out: MMP-8CD IC50
T7 construct: MMP-7 full-length, MMP-8 catalytic domain, MMP-9 full-length
T7 sequence (P22894 100-262 limits assumed, species assumed): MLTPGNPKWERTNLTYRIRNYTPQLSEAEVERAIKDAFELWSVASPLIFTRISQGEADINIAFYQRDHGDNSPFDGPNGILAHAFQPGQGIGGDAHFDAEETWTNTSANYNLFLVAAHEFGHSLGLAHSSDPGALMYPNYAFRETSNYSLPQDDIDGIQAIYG
Text: as §1, §2, §3
Certain compounds of formula (I) have been assayed with MMP-1 full-length, MMP-2 full-length, MMP-3 catalytic domain, MMP-7 full-length, MMP-8 catalytic domain, MMP-9 full-length, MMP-12 catalytic domain, and MMP-14 catalytic domain.

MMP-7 full-length = molecular target: T8, MMP-7 full-length (Homo sapiens, UniProt P09237); experiment: MMP-7 full-length thiopeptolide hydrolysis inhibition; assay type: biochemical; conditions: read-out: MMP-7FL IC50
T8 construct: further screened with full-length MMP-2, full-length MMP-7, full-length MMP-9
T8 sequence (P09237 95-267): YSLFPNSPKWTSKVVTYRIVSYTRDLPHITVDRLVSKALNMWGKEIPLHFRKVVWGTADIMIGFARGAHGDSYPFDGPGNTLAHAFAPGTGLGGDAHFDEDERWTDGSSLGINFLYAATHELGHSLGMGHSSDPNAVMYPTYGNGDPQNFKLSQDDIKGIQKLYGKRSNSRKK
Text: as §1, §2, §3, §4

MMP-2 full-length = molecular target: T9, MMP-2 full-length (Homo sapiens, UniProt P08253); experiment: MMP-2 full-length thiopeptolide hydrolysis inhibition; assay type: biochemical; conditions: read-out: MMP-2FL IC50
T9 construct: further screened with full-length MMP-2, full-length MMP-7, full-length MMP-9
T9 sequence (P08253 110-660): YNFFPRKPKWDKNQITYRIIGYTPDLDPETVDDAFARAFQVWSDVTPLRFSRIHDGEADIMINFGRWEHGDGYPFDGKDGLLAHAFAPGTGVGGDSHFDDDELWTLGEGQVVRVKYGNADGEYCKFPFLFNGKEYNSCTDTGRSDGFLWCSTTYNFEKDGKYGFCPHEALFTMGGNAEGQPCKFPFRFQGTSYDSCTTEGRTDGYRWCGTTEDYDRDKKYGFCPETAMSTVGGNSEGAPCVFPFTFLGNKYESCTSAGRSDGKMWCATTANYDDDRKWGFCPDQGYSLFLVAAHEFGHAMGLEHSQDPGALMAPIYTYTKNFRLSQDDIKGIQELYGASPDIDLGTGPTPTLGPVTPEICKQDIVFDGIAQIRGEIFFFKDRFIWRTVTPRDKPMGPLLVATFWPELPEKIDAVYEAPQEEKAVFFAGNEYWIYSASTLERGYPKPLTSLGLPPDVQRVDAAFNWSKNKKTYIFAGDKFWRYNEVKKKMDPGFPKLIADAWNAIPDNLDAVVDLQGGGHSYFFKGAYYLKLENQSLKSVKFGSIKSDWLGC
Text: as §1
Thiopeptolide substrates show virtually no decomposition or hydrolysis at or below neutral pH in the absence of a matrix metalloproteinase enzyme. A typical thiopeptolide substrate commonly utilized for assays is Ac-Pro-Leu-Gly-thioester-Leu-Leu-Gly-OEt. A 100 μL assay mixture will contain 50 mM of N-2-hydroxyethylpiperazine-N′-2-ethanesulfonic acid buffer (“HEPES,” pH 7.0), 10 mM CaCl2, 100 μM thiopeptolide substrate, and 1 mM 5,5′-dithio-bis-(2-nitrobenzoic acid) (DTNB). The thiopeptolide substrate concentration may be varied, for example from 10 to 800 μM to obtain Km and Kcat values. The change in absorbance at 405 nm is monitored on a Thermo Max microplate reader (molecular Devices, Menlo Park, Calif.) at room temperature (22° C.). The calculation of the amount of hydrolysis of the thiopeptolide substrate is based on E412=13600 M^−1 cm^−1 for the DTNB-derived product 3-carboxy-4-nitrothiophenoxide. […]

Row | SMILES | IC50 (MMP-12 catalytic domain) [µM] | IC50 (MMP-14 catalytic domain) [µM] | IC50 (MMP-1 full-length) [µM] | IC50 (MMP-3 catalytic domain) [µM] | IC50 (MMP-9 full-length) [µM] | IC50 (MMP-13 catalytic domain) | solubility [1] [µg/mL] | IC50 (MMP-8 catalytic domain) [µM] | IC50 (MMP-7 full-length) [µM] | IC50 (MMP-2 full-length) [µM]
1 | Cc1cc(C(F)CCc2ccc(C(=O)O)cc2)cc(C(=O)NCc2cccc(C(F)(F)F)c2)n1 (stereo not shown) [Example 1, 4-{3-fluoro-3-[2-methyl-6-(3-trifluoromethyl-benzylcarbamoyl)-pyridin-4-yl]-propyl}-benzoic acid] | > 100 | 56 | > 100 | 11 | 51 | 0.028 µM and 0.039 µM | 27 (≈ 56.9 µM) | > 30 | 51 | –
2 | Cc1cc(C(F)(F)CCc2ccc(C(=O)O)cc2)cc(C(=O)NCc2cccc(C(F)(F)F)c2)n1.O=C(O)C(F)(F)F [Example 2, 4-{3,3-difluoro-3-[2-methyl-6-(3-trifluoromethyl-benzylcarbamoyl)-pyridin-4-yl]-propyl}-benzoic acid monotrifluoroacetic acid salt] | > 100 | > 100 | > 100 | 13 | 64 | 0.087 µM and 0.11 µM | 4 | > 30 | 1.7 | > 100
3 | Cc1cc(C(O)CCc2ccc(C(=O)O)cc2)cc(C(=O)NCc2cccc(C(F)(F)F)c2)n1 (stereo not shown) [Example 3, 4-{3-hydroxy-3-[2-methyl-6-(3-trifluoromethyl-benzylcarbamoyl)-pyridin-4-yl]-propyl}-benzoic acid] | > 100 | > 100 | > 100 | 6 | < 10 | 0.062 µM | – | > 100 | < 10 | 90
